These results are taken from ChEMBL document CHEMBL1909046, “DrugMatrix in vitro pharmacology data”.

Assay [1] concerns the target Mitogen-activated protein kinase 14 (Homo sapiens, UniProt Q16539). More on the design: species or system Escherichia coli.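 Also: inhibition of p38alpha enzyme activity in a biochemical kinase assay, with myelin basic protein serving as substrate; in other assays of this panel Not Active means under 50% inhibition at 10 µM.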
In assay [2] the target is T1, Alpha-2A adrenergic receptor (Homo sapiens, UniProt P08913). Also: in other assays of this panel Not Active means under 50% inhibition at 10 µM.
T1 sequence (P08913 whole entry): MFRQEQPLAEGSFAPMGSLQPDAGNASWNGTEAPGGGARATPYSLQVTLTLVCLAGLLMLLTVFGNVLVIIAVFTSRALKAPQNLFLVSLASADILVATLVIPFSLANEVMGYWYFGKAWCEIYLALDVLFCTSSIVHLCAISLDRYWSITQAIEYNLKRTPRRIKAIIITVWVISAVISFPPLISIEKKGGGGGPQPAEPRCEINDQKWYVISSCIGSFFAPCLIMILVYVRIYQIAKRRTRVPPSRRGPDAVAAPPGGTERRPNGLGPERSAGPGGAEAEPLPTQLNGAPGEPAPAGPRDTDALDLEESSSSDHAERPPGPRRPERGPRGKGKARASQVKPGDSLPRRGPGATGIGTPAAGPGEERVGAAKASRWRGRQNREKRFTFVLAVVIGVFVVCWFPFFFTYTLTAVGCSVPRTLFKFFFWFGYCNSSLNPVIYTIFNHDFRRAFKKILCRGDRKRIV
The format is cell membranes, Sf9, Membrane.

Assay [3] deals with T2, Cholecystokinin receptor type A (Homo sapiens, UniProt P32238).
T2 sequence (P32238 whole entry): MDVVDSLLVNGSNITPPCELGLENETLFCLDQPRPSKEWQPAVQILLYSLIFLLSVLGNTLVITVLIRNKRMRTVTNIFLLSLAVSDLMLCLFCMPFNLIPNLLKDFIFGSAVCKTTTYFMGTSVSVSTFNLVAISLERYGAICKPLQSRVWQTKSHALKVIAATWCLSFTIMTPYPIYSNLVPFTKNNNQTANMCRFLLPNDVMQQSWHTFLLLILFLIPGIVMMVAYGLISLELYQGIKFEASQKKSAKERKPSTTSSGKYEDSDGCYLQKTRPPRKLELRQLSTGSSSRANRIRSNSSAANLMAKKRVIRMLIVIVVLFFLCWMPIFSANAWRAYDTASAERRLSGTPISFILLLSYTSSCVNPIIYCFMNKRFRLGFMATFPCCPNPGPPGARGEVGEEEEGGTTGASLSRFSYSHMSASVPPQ
In kind it is cell membranes, Membrane. The settings on record: 1321-n1.

Assay [4] concerns the target Aldo-keto reductase family 1 member B1 (Rattus norvegicus, UniProt P07943). The format is tissue-based, Lens of camera-type eye.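 Also: inhibition of aldose reductase enzyme activity, measured with DL-glyceraldehyde as the substrate; in other assays of this panel Not Active means under 50% inhibition at 10 µM.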
Assay [5] is described as follows: DRUGMATRIX: beta-Lactamase enzyme inhibition (substrate: Nitrocefin). The settings on record: Not Active = under 50% inhibition at 10 µM. More on the design: species or system Bacillus cereus.
Another assay has as its target D(1A) dopamine receptor (Homo sapiens, UniProt P21728). As to the kind of experiment: DRUGMATRIX: Dopamine D1 radioligand binding (ligand: [3H] SCH-23390). The settings on record: cho; Not Active = under 50% inhibition at 10 µM. In kind it is cell membranes, CHO, Membrane.
Assay [6] can be described thus: DRUGMATRIX: Calcium Channel Type L, Dihydropyridine radioligand binding (ligand: [3H] Nitrendipine). In kind it is cell membranes, Rattus norvegicus, Wistar, Cerebral cortex, Membrane. Particulars: Not Active = under 50% inhibition at 10 µM.
The target in assay [7] is 5-hydroxytryptamine receptor 2B (Homo sapiens, UniProt P41595). In kind it is cell membranes, CHO-K1, Membrane. Also: in other assays of this panel Not Active means under 50% inhibition at 10 µM.
Assay [8] in a line: DRUGMATRIX: Atrial Natriuretic Factor (ANF) radioligand binding (ligand: [125I] ANF (rat)). In kind it is cell membranes, Cavia porcellus, Dunkin-Hartley, Adrenal gland, Membrane. Particulars: Not Active = under 50% inhibition at 10 µM.
The target in assay [9] is Vascular endothelial growth factor receptor 1 (Homo sapiens, UniProt P17948). The format is cell-based. The settings on record: huvec. Also: in other assays of this panel Not Active means under 50% inhibition at 10 µM.
Assay [10] addresses T3, Polyunsaturated fatty acid lipoxygenase ALOX15 (Oryctolagus cuniculus, UniProt P12530).
T3 sequence (P12530 whole entry): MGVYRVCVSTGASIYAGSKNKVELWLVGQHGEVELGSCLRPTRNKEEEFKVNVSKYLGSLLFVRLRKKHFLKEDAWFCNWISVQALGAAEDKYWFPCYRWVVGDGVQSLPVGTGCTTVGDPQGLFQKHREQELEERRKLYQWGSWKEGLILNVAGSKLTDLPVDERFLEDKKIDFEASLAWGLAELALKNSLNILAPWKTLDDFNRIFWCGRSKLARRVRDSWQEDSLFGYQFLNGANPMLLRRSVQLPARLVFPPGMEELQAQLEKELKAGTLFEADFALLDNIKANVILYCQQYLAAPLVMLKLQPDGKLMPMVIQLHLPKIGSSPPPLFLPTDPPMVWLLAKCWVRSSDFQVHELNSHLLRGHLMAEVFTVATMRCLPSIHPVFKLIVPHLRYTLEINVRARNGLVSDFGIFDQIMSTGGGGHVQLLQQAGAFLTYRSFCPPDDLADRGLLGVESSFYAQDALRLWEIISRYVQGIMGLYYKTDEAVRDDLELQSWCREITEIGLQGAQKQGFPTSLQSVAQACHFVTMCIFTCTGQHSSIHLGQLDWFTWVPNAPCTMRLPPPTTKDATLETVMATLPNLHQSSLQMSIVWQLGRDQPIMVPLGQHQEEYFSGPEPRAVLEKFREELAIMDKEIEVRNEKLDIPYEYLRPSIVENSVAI
The experiment in a line: biochemical. In kind it is tissue-based, Reticulocytes. The settings on record: reticulocytes.

The next assay has as its target Substance-P receptor (Homo sapiens, UniProt P25103). In kind it is cell membranes, CHO, Membrane. The settings on record: cho. Also: in other assays of this panel Not Active means under 50% inhibition at 10 µM.
The target in another assay is T4, Adenosine receptor A1 (Homo sapiens, UniProt P30542).
T4 sequence (P30542 whole entry): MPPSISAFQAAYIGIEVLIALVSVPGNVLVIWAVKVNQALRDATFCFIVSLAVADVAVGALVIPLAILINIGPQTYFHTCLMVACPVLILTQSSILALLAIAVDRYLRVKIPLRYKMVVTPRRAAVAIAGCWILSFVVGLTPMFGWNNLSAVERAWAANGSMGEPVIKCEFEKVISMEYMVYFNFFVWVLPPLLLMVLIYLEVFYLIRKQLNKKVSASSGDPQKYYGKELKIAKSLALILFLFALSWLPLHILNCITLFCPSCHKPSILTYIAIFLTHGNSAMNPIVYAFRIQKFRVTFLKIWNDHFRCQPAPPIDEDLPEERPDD
In kind it is cell membranes, CHO, Membrane. The settings on record: cho.

Assay [11] in a line: DRUGMATRIX: Glutamate, AMPA radioligand binding (ligand: [3H] AMPA). In kind it is cell membranes, Rattus norvegicus, Wistar, Cerebral cortex, Membrane. The settings on record: Not Active = under 50% inhibition at 10 µM.
The target in a further assay is D(3) dopamine receptor (Homo sapiens, UniProt P35462). The experiment in a line: DRUGMATRIX: Dopamine D3 radioligand binding (ligand: [3H] Spiperone). In kind it is cell membranes, CHO, Membrane. The settings on record: cho.
The target in assay [12] is Beta-2 adrenergic receptor (Homo sapiens, UniProt P07550). As to the kind of experiment: DRUGMATRIX: Adrenergic beta2 radioligand binding (ligand: [3H] CGP-12177). Particulars: cho; Not Active = under 50% inhibition at 10 µM. In kind it is cell membranes, Membrane.
Assay [13] deals with C-C chemokine receptor type 5 (Homo sapiens, UniProt P51681). In kind it is cell membranes, Membrane. The settings on record: hek293.

Structures are written as SMILES.

Vascular endothelial growth factor receptor 1, sequence (P17948 whole entry): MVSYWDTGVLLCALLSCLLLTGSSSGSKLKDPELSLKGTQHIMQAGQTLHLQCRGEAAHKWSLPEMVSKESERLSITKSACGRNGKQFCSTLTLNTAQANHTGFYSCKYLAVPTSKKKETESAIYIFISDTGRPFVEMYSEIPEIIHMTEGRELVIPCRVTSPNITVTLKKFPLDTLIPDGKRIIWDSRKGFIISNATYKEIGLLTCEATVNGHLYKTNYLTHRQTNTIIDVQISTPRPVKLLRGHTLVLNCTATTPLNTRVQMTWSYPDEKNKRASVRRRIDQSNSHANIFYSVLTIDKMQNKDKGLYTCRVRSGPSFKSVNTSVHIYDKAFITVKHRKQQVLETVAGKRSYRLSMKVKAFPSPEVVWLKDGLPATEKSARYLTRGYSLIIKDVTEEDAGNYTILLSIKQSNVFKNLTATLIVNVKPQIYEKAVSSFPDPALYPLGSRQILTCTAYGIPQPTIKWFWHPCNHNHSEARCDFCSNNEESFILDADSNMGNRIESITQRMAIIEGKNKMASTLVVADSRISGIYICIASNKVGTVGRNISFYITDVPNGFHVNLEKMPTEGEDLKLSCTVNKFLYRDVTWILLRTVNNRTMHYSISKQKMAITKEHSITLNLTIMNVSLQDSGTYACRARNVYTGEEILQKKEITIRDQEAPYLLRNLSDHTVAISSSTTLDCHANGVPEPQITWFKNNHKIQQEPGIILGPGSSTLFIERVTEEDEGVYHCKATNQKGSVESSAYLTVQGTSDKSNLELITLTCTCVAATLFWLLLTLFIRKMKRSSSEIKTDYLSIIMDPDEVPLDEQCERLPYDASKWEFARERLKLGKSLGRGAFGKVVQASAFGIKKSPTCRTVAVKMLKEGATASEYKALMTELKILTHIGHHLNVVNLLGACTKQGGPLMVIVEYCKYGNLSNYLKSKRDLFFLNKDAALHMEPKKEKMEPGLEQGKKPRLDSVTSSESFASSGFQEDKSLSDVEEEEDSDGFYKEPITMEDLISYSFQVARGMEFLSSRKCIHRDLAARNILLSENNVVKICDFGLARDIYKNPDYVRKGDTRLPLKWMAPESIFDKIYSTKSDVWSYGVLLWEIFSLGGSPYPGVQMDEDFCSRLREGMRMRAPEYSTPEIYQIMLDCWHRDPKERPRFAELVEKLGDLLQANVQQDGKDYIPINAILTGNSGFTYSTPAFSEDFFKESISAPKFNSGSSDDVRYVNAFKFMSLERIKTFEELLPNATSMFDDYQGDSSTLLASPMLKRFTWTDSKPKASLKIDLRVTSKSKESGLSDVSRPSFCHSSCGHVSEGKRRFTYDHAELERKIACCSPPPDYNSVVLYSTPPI
5-hydroxytryptamine receptor 2B, sequence (P41595 whole entry): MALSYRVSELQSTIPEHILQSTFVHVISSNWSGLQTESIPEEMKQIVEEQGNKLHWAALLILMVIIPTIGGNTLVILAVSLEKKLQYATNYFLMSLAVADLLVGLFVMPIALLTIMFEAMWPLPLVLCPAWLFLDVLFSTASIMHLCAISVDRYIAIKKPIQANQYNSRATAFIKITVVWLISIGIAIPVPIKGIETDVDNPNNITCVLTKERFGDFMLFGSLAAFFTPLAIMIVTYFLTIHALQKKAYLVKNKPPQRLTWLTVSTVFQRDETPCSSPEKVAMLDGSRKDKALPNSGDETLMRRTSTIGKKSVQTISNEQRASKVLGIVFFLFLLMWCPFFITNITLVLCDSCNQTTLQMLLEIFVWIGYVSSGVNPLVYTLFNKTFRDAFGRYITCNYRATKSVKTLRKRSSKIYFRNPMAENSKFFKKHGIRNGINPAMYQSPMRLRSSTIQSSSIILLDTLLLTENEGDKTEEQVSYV
C-C chemokine receptor type 5, sequence (P51681 whole entry): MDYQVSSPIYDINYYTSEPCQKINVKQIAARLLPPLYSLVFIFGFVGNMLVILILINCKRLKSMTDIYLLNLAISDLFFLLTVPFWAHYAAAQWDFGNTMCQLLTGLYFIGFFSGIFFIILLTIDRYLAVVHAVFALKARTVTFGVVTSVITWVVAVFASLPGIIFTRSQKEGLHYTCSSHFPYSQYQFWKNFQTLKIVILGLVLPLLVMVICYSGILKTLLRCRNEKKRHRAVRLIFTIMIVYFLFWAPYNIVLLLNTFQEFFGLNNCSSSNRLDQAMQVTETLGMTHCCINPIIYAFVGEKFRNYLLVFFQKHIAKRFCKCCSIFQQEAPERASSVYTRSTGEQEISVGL
Beta-2 adrenergic receptor, sequence (P07550 whole entry): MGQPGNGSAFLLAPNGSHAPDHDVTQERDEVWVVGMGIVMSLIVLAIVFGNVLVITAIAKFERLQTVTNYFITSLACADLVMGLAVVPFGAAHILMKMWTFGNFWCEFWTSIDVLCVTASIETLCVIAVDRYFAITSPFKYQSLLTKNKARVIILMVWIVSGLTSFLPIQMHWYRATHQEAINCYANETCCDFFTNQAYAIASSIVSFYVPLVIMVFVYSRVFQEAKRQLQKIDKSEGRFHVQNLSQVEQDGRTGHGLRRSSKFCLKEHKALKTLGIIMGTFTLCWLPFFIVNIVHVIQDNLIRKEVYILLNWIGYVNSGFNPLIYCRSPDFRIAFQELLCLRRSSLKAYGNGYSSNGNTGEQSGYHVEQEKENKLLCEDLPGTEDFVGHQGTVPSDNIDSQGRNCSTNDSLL
D(1A) dopamine receptor, sequence (P21728 whole entry): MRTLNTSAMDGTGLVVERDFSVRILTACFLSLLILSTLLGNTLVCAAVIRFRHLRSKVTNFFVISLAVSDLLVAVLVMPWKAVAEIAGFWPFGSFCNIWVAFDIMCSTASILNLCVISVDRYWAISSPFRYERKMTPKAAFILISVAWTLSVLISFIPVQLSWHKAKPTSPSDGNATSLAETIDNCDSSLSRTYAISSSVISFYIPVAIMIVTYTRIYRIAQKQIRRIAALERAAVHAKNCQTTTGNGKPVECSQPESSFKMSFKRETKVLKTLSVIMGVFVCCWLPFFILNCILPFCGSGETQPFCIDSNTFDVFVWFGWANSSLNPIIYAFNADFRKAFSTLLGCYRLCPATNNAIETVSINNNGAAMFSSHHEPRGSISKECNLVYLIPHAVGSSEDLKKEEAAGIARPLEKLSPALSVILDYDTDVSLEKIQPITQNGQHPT
Mitogen-activated protein kinase 14, sequence (Q16539 whole entry): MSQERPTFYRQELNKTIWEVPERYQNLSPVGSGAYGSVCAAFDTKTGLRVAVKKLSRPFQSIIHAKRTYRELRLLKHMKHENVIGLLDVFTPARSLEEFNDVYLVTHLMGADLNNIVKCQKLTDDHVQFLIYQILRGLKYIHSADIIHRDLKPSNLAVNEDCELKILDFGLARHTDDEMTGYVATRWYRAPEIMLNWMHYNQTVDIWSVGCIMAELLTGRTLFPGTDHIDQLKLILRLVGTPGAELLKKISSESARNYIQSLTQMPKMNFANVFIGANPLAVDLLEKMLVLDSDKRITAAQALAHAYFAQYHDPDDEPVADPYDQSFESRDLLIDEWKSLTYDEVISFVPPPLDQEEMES
Substance-P receptor, sequence (P25103 whole entry): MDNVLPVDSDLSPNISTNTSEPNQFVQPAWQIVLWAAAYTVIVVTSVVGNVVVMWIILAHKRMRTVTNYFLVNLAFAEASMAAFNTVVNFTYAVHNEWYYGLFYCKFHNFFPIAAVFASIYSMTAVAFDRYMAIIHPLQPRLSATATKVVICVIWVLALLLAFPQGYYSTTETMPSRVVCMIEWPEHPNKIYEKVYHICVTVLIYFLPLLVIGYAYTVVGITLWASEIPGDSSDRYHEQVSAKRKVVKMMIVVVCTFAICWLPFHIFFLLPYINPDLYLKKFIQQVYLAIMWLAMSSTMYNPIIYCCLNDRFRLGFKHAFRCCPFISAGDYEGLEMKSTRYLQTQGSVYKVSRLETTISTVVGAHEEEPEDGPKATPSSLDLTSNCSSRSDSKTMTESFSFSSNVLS
D(3) dopamine receptor, sequence (P35462 whole entry): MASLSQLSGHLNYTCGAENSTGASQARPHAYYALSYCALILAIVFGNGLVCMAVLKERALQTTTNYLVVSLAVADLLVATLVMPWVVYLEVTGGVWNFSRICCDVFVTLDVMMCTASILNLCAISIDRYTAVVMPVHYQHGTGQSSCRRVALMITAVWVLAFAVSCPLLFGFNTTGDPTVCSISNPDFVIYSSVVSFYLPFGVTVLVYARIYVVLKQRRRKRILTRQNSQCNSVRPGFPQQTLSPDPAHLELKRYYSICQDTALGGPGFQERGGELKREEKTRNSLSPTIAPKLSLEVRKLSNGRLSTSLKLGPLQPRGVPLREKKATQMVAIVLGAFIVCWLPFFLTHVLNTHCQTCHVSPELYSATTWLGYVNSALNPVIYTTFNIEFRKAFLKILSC

Regarding `Clc1ccc(C(c2ccccc2Cl)C(Cl)Cl)cc1` (configuration not stated) [MITOTANE], the IC50 (as a rule, the concentration that inhibits the measured activity by half) in assay [1] is “Not Active”; in [2] (read-out: IC50) it was 7.35 µM; in [3] it was “Not Active”; in assay [4], “Not Active”; in [5], “Not Active”; at D(1A) dopamine receptor it was “Not Active”. In addition, the IC50 entry in assay [6] was “Not Active”; in assay [7] (read-out: IC50), 4.83 µM; in assay [8] it was “Not Active”; in [9], “Not Active”; in assay [10], “Not Active”; on Substance-P receptor, “Not Active”. Also, the IC50 entry (against Adenosine receptor A1; in assay [11]; on D(3) dopamine receptor; in [12]; in assay [13]) was “Not Active” in each case. Also, the Ki – broadly, the dissociation constant of the complex between target and ligand, obtained from inhibition or displacement – in assay [2] (read-out: Ki) was 2750 nM; in assay [5], “Not Active”; in assay [6], “Not Active”; in assay [7] (read-out: Ki), 3.08 µM; in assay [8], “Not Active”; in assay [11] it was “Not Active”.

For `COc1c(C)c2c(c(O)c1C/C=C(\C)CCC(=O)OCCN1CCOCC1)C(=O)OC2` [MYCOPHENOLATE MOFETIL], the IC50 entry (in [1]; in assay [2] (sf9); in [3]; in [4]; in assay [5]; on D(1A) dopamine receptor) was “Not Active” each time. The IC50 result (in [6]; in assay [7] (cho-k1); in assay [8]; in [9]; in assay [10]; at Substance-P receptor) was “Not Active” in each case. The concentration for half-maximal inhibition (IC50) result (on Adenosine receptor A1; in [11]; at D(3) dopamine receptor; in [12]; in assay [13]) was “Not Active” throughout. Besides, the Ki entry in assay [5], in assay [6], in assay [8] and in assay [11] was “Not Active” throughout.

In the case of `C[C@]12Cc3c[nH]nc3C[C@@H]1CC[C@@H]1[C@@H]2CC[C@@]2(C)[C@H]1CC[C@]2(C)O` [STANOZOLOL], the concentration for half-maximal inhibition (IC50) entry (in assay [1]; in assay [2] (sf9); in [3]; in assay [4]; in assay [5]; on D(1A) dopamine receptor) was “Not Active” each time. In addition, the IC50 entry (in assay [6]; in assay [7] (cho-k1); in assay [8]; in [9]; in [10]; on Substance-P receptor) was “Not Active” in each case. For the same compound, the IC50 entry (on Adenosine receptor A1; in assay [11]; on D(3) dopamine receptor; in assay [12]; in assay [13]) was “Not Active” in each case. Also, the Ki entry in assay [5], in assay [6], in [8] and in assay [11] was “Not Active” in each case.

Turning to `C=CC[C@@H]1/C=C(\C)C[C@H](C)C[C@H](OC)[C@H]2O[C@@](O)(C(=O)C(=O)N3CCCC[C@H]3C(=O)O[C@H](/C(C)=C/[C@@H]3CC[C@@H](O)[C@H](OC)C3)[C@H](C)[C@@H](O)CC1=O)[C@H](C)C[C@@H]2OC` [TACROLIMUS ANHYDROUS], the IC50 entry (in assay [1]; in assay [2] (sf9); in assay [3]; in assay [4]; in assay [5]; on D(1A) dopamine receptor) was “Not Active” throughout. Moreover, the IC50 result (in [6]; in assay [7] (cho-k1); in [8]; in [9]; in assay [10]; against Substance-P receptor) was “Not Active” in each case. The IC50 entry (at Adenosine receptor A1; in assay [11]; on D(3) dopamine receptor; in assay [12]; in assay [13]) was “Not Active” throughout. Besides, the inhibitory constant (Ki) entry in [5], in assay [6], in [8] and in [11] was “Not Active” in each case.

`CC(=O)[C@H]1CC[C@H]2[C@@H]3CCC4=CC(=O)CC[C@]4(C)[C@H]3CC[C@]12C` [PROGESTERONE]: the IC50 result (in [1]; in assay [2] (sf9); in [3]; in assay [4]; in assay [5]; on D(1A) dopamine receptor) was “Not Active” each time. Moreover, the IC50 result (in [6]; in assay [7] (cho-k1); in assay [8]; in assay [9]; in assay [10]; against Substance-P receptor) was “Not Active” in each case. Further, the half-inhibitory concentration (IC50) result (against Adenosine receptor A1; in assay [11]; at D(3) dopamine receptor; in [12]; in [13]) was “Not Active” in each case. For the same compound, the Ki result in assay [5], in assay [6], in assay [8] and in assay [11] was “Not Active” in each case.
